Source: patent US8466157B2, “Proteasome inhibitors having chymotrypsin-like activity” (University of South Florida, priority 2009, dated 2013)
Where “and” joins values, the source holds several entries; their conditions need not be identical. Identical values can stand only once. Like-named read-outs stand apart in the source and are kept apart here.

How the values were obtained:
[1] = target: T1, chymotrypsin-like activity of the purified rabbit 20S proteasome (Oryctolagus cuniculus, UniProt G1T4Q9); test: 20S proteasome inhibition assay, fluorogenic substrate Suc-Leu-Leu-Val-Tyr-AMC; format: biochemical; conditions: for proteasome inhibitory activity, SAR statement in words: chymotrypsin-like activity, compared with lead or analogue; for decrease of proteasome inhibition activity: 14u, 14v vs linear-chain analogues, 14q vs lead compound 10a;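 as to all read-outs here: enzyme and 20 µM substrate incubated 1 h at 37 °C in Tris-HCl buffer pH 7.6, fluorogenic read-out, inhibition calculated against vehicle control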
T1 sequence (G1T4Q9 1-263): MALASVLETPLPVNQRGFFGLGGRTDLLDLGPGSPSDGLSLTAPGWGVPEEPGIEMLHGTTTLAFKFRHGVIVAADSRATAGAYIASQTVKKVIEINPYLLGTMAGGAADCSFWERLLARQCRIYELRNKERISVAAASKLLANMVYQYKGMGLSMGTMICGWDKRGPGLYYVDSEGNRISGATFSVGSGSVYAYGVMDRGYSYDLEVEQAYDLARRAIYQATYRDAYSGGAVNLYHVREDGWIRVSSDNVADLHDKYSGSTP
Description: 20S Proteasome Inhibition Assay
In our work, we used chymotrypsin-like substrate Suc-Leu-Leu-Val-Tyr-AMC to test the proteasome inhibition activity of the synthesized compounds.
The assay was conducted by using a fluorogenic peptide as substrate to test synthesized compounds for inhibitory activity against the chymotrypsin-like activity of the purified rabbit 20S proteasome. Briefly, 70 ng of purified 20S proteasome was incubated with 20 μM Suc-Leu-Leu-Val-Tyr-AMC for 1 hour at 37° C. in 100 μl of assay buffer (50 mM Tris-HCl, pH 7.6) with or without inhibitors. […] The inhibitory activity of the compounds was calculated based on vehicle control.

CT-L = target: T2, CT-L (Homo sapiens, UniProt P28074); test: Inhibition of CT-L in cell culture; format: cell-based
T2 construct: endogenous in cells
T2 sequence (P28074 60-263): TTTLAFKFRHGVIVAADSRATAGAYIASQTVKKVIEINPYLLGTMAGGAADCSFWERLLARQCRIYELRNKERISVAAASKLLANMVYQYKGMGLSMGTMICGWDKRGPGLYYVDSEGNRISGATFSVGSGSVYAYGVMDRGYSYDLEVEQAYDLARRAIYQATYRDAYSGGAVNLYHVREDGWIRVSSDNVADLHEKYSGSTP

[2] = individual determinations (runs M-1096, M-1098, M-1099, AK or dated), read-out: Chymotrypsin-like Activity IC50
[3] = mean of the individual determinations, read-out: Chymotrypsin-like Activity IC50 (μM), mean ± spread (n)
[4] = read-out: IC50 (μM)* In Cell culture against CT-L

Molecule | IC50 [1, 2] | melting point | other results
O=C(O)CSC1=CC(=NS(=O)(=O)c2cccs2)c2ccccc2C1=O (stereo in doubt) [YG2-176, (Z)-2-(1-oxo-4-(thiophen-2-ylsulfonylimino)-1,4-dihydronaphthalen-2-ylthio)acetic acid] | 2.28 µM and 2.12 µM and 2.4 µM | – | proteasome inhibitory activity, SAR statement in words [1]: comparable inhibitory potency; IC50 [1, 3]: 2.27 µM; IC50 (CT-L; [4]): 8.9 µM and 6.9 µM
COC(=O)CCSC1=C/C(=N\S(=O)(=O)c2cccs2)c2ccccc2C1=O [8b, Methyl 3-(1-oxo-4-(thiophen-2-ylsulfonylimino)-1,4-dihydronaphthalen-2-ylthio) propanoate] | – | 140 to 142 °C | –
COC(=O)CCSc1cc(NS(=O)(=O)c2cccs2)c2ccccc2c1O [9b, Methyl 3-(1-hydroxy-4-(thiophene-2-sulfonamido)naphthalen-2-ylthio)propanoate] | – | 117 to 119 °C | –
CCOC(=O)CSc1cc(NS(=O)(=O)c2ccc(-c3ccccc3)cc2)c2ccccc2c1O [14r, Ethyl 2-(4-(biphenyl-4-ylsulfonamido)-1-hydroxynaphthalen-2-ylthio)acetate] | – | 166 to 168 °C | –
O=C(O)CSc1cc(NS(=O)(=O)c2cc(Cl)c(Cl)s2)c2ccccc2c1O [HL4-098-2, 2-(4-(4,5-dichlorothiophene-2-sulfonamido)-1-hydroxynaphthalen-2-ylthio)acetic acid] | 1.05 µM and 2.4 µM and 2.67 µM | – | IC50 (CT-L; [4]): 25 µM and 17.4 µM
O=C(O)CSc1cc(NS(=O)(=O)c2cccs2)c2ccccc2c1O [HLM008182, 2-(1-hydroxy-4-(thiophene-2-sulfonamido)naphthalen-2-ylthio)acetic acid] | – | – | proteasome inhibitory activity, SAR statement in words [1]: comparable proteasome inhibition activity; IC50 [1, 3]: 2.2 µM; IC50 ([1]; sample kept r.t. 2 weeks in DMSO, read-out: Chymotrypsin-like Activity IC50 (μM), r.t. 2 weeks in DMSO (converted)): 2.76 µM and 1.64 µM; IC50 (CT-L; listed as YG1-066, read-out: IC50 (μM)* In Cell culture against CT-L): 7.3 µM; IC50 (CT-L; [4]): 8.9 µM
O=S(=O)(Nc1cc(I)c(O)c2ccccc12)c1cccs1 [YG1-033, N-(3-iodo-4-hydroxynaphthalen-1-yl)thiophene-2-sulfonamide] | 26 µM and > 100 µM and 28 µM | 134 to 136 °C | –
CCOC(=O)CSC1=C/C(=N\S(=O)(=O)c2ccccc2)c2ccccc2C1=O [YG1-110, Ethyl 2-(1-oxo-4-(phenylsulfonylimino)-1,4-dihydronaphthalen-2-ylthio)acetate] | 1.04 µM and 1.86 µM and 2.06 µM and 2.35 µM and 3.8 µM | 93 to 95 °C | IC50 [1, 3]: 2.22 µM
CCOC(=O)CSc1cc(NS(=O)(=O)c2ccccc2)c2ccccc2c1O [YG1-113, Ethyl 2-(1-hydroxy-4-(phenylsulfonamido)naphthalen-2-ylthio)acetate] | 1.74 µM and 7 µM and 8.7 µM and 2.75 µM and 6.4 µM | 118 to 120 °C | proteasome inhibitory activity, SAR statement in words [1]: reduced compared to acid analogues
O=C(O)CCSc1cc(NS(=O)(=O)c2cccs2)c2ccccc2c1O [YG1-116, 3-(1-hydroxy-4-(thiophene-2-sulfonamido)naphthalen-2-ylthio)propanoic acid] | 7.4 µM | 185 °C (dec.) | proteasome inhibitory activity, SAR statement in words [1]: the inhibitory activity diminished
O=C1C(N2CCOCC2)=C/C(=N\S(=O)(=O)c2cccs2)c2ccccc21 [YG1-129, N-(3-morpholino-4-oxonaphthalen-1(4H)-ylidene)thiophene-2-sulfonamide] | > 10 µM | 195 °C (dec.) | –
O=C(O)CSc1cc(NS(=O)(=O)c2ccc(-c3ccccc3)cc2)c2ccccc2c1O [YG1-152, 2-(4-(biphenyl-4-ylsulfonamido)-1-hydroxynaphthalen-2-ylthio)acetic acid] | 0.81 µM and 2.48 µM and 2.28 µM and 1.74 µM and 2.2 µM | – | IC50 ([1]; value quoted in running text / FIG. 11, read-out: IC50 against chymotrypsin-like proteasome activity): 1.9 µM; IC50 (CT-L; [4]): > 100 µM and 83 µM
O=C(O)CSc1cc(NS(=O)(=O)c2ccc(Cl)s2)c2ccccc2c1O [YG1-153, 2-(4-(5-chlorothiophene-2-sulfonamido)-1-hydroxynaphthalen-2-ylthio)acetic acid] | 0.73 µM and 2.42 µM and 2.7 µM and 2.3 µM and 2.2 µM | – | IC50 [1, 3]: 2.07 µM; IC50 (CT-L; [4]): 8 µM and 10 µM
O=C(O)c1ccccc1Sc1cc(NS(=O)(=O)c2cccs2)c2ccccc2c1O [YG1-155, 2-(1-hydroxy-4-(thiophene-2-sulfonamido)naphthalen-2-ylthio)benzoic acid] | 1.12 µM and 4.6 µM and 5.32 µM and 7.7 µM and 7.1 µM and 1.04 µM and 1.5 µM | 215 °C (dec.) | IC50 [1, 3]: 4.05 µM
O=C1C(Sc2ncn[nH]2)=C/C(=N\S(=O)(=O)c2cccs2)c2ccccc21 [YG1-158-2, N-(3-(1H-1,2,4-triazol-5-ylthio)-4-oxonaphthalen-1(4H)-ylidene)thiophene-2-sulfonamide] | 1.34 µM and 4.38 µM and 3.85 µM and 2.1 µM and 2.09 µM | 197 °C (dec.) | IC50 [1, 3]: 2.75 µM
Cn1nnnc1Sc1cc(NS(=O)(=O)c2cccs2)c2ccccc2c1O [YG1-159-1, N-(4-hydroxy-3-(1-methyl-1H-tetrazol-5-ylthio)naphthalen-1-yl)thiophene-2-sulfonamide] | 2.11 µM and 6.45 µM and 6.6 µM and 6.55 µM and 1.54 µM and 2.18 µM | – | proteasome inhibitory activity, SAR statement in words [1]: comparable inhibition potency; IC50 (CT-L; [4]): 6.4 µM
O=C(O)c1ccccc1Sc1cc(NS(=O)(=O)c2ccc(-c3ccccc3)cc2)c2ccccc2c1O [YG1-168, 2-(4-(biphenyl-4-ylsulfonamido)-1-hydroxynaphthalen-2-ylthio)benzoic acid] | 2.32 µM and 2.44 µM and 1.84 µM | 205 °C (dec.) | –
CC(Sc1cc(NS(=O)(=O)c2ccc(Cl)cc2)c2ccccc2c1O)C(=O)O (centres unmarked) [YG2-024-1, 2-(4-(4-chlorophenylsulfonamido)-1-hydroxynaphthalen-2-ylthio)propanoic acid] | 9.5 µM and > 10 µM and 8 µM | 177 to 179 °C | decrease of proteasome inhibition activity [1]: ~2 fold

Molecule | IC50 [1, 2] | melting point | other results
CC(Sc1cc(NS(=O)(=O)c2ccc3ccccc3c2)c2ccccc2c1O)C(=O)O (centres unmarked) [YG2-024-2, 2-(1-hydroxy-4-(naphthalene-2-sulfonamido)naphthalen-2-ylthio)propanoic acid] | 9.6 µM and 8.45 µM | 176 to 178 °C | decrease of proteasome inhibition activity [1]: ~2 fold
O=C(O)CSc1cc(NS(=O)(=O)c2ccc3ccccc3c2)c2ccccc2c1O [YG2-034-2, 2-(1-hydroxy-4-(naphthalene-2-sulfonamido)naphthalen-2-ylthio)acetic acid] | > 10 µM and 4 µM and 5.9 µM | 185 to 187 °C | decrease of proteasome inhibition activity [1]: 3 fold
O=C(O)COc1ccc(NS(=O)(=O)c2cccs2)c2ccccc12 [YG2-083, 2-(4-(thiophene-2-sulfonamido)naphthalen-1-yloxy)acetic acid] | > 10 µM | – | –
CCSC1=C/C(=N\S(=O)(=O)c2cccs2)c2ccccc2C1=O [YG2-086-1, N-(3-(ethylthio)-4-oxonaphthalen-1(4H)-ylidene)thiophene-2-sulfonamide] | 9.4 µM and 9.85 µM | – | –
CCSc1cc(NS(=O)(=O)c2cccs2)c2ccccc2c1O [YG2-087-1, N-(3-(ethylthio)-4-hydroxynaphthalen-1-yl)thiophene-2-sulfonamide] | – | – | proteasome inhibitory activity, SAR statement in words [1]: the inhibitory activity totally lost
O=C(O)CCCOc1ccc(NS(=O)(=O)c2cccs2)c2ccccc12 [YG2-094, 4-(4-(thiophene-2-sulfonamido)naphthalen-1-yloxy)butanoic acid] | > 10 µM | – | –
O=C1CSc2cc(NS(=O)(=O)c3cccs3)c3ccccc3c2O1 [YG2-120, N-(2-oxo-2,3-dihydronaphtho[1,2-b][1,4]oxathiin-6-yl)thiophene-2-sulfonamide] | 1.1 µM and 1.79 µM | – | –
O=C1C(Cl)=C/C(=N\S(=O)(=O)c2cccs2)c2ccccc21 [YG2-133-2] | 4.25 µM and 2.75 µM | – | –
Nc1ccc(SCC(=O)O)c2ccccc12 [YG3-005, 2-(4-aminonaphthalen-1-ylthio)acetic acid] | > 10 µM | – | –
O=C(O)CSc1ccc(NS(=O)(=O)c2cccs2)c2ccccc12 [YG3-007, 2-(4-(thiophene-2-sulfonamido)naphthalen-1-ylthio)acetic acid] | > 10 µM | – | –
CC(C)(C)OC(=O)COC1=CC(=O)c2ccccc2C1=O [YL2-013, tert-Butyl 2-(1,4-dioxo-1,4-dihydronaphthalen-2-yloxy)acetate] | > 10 µM | 120 to 122 °C | –
CC(C)(C)OC(=O)CC1C(=O)C(=O)c2ccccc2C1=O (centres unmarked) [YL2-015 4th spot] | > 10 µM | – | –
CC(C)(C)OC(=O)COC1=C/C(=N\S(=O)(=O)c2cccs2)c2ccccc2C1=O [YL2-023, tert-Butyl-2-(1-oxo-4-(thiophen-2-ylsulfonylimino)-1,4-dihydronaphthalen-2-yloxy)acetate] | > 10 µM | – | –
CC(C)(C)OC(=O)COc1cc(NS(=O)(=O)c2cccs2)c2ccccc2c1O [YL2-025, tert-Butyl-2-(1-hydroxy-4-(thiophene-2-sulfonamido)naphthalen-2-yloxy)acetate] | > 10 µM | – | –
O=C(O)COc1cc(NS(=O)(=O)c2cccs2)c2ccccc2c1O [YL2-030, 2-(1-hydroxy-4-(thiophene-2-sulfonamido)naphthalen-2-yloxy)acetic acid] | > 10 µM | – | proteasome inhibitory activity, SAR statement in words [1]: diminished the inhibitory activity
N-(3-(1-methyl-1H-tetrazol-5-ylthio)-4-oxonaphthalen-1(4H)-ylidene)thiophene-2-sulfonamide [YG1-158-1] | 2.46 µM and 7.24 µM and 7.9 µM and 9.8 µM and > 10 µM and 1.24 µM and 1.81 µM | – | IC50 [1, 3]: 5.08 µM
N-(3-(ethylthio)-4-hydroxynaphthalen-1-yl)thiophene-2-sulfonamide [YG2-087-1] | > 10 µM | – | –
